Reference: patent US7655225B2, “Methods of expanding stem and progenitor cells and expanded cell populations obtained thereby” (Gamida Cell, Ltd., priority 2002, dated 2010)

Tested on: mononuclear cells (MNC)
Assay: Colony-forming cells (CFUs) from mixed cells (MNC) culture
Type: cell-based, human
Conditions: FIG. 18
Method: Self-renewal potential evaluations: The self-renewal potential of stem cells was determined in vitro by long-term colony formation. Cells were washed and seeded in a semi-solid methylcellulose medium supplemented with 2 IU/ml erythropoietin (Eprex, Cilage AG Int., Switzerland), stem cell factor and IL-3, both at 20 ng/ml (Perpo Tech), and G-CSF and GM-CSF, both at 10 ng/ml (Perpo Tech). The resulting colonies were scored after two weeks of incubation at 37° C. in a humidified atmosphere of 5% CO2 in air. Colonies were classified as blast, mixed, erythroid, myeloid, and megakaryocytic, according to their cellular composition.
Ex vivo expansion of progenitor cells: The non-purified mononuclear cells (MNC), obtained as described hereinabove, were seeded in Culture Bags (American Fluoroseal Corp.), with alpha minimal essential medium supplemented with 10% fetal bovine serum (FBS, Biological Industries), at a concentration of about 10^6 cells/ml. The purified CD34^+ cells were similarly seeded in the Culture Bags, at a concentration of […]. The media were supplemented with TEPA chelator and/or with the following human recombinant cytokines (all obtained from Perpo Tech, Inc., Rocky Hill, N.J.): Thrombopoietin (TPO), 50 ng/ml; interleukin 6 (IL-6), 50 ng/ml; FLT-3 ligand, 50 ng/ml and a stem cell factor (SCF), 50 ng/ml; occasionally SCF was replaced by IL-3, 20 ng/ml. […]

Question: `NCCNCCNCCNCCN` [TEPA chelator, tetraethylenepentamine] was tested. Which “number of CD34+ CFUs” value (after 2 weeks) did it give?
Answer: Its value is “non-detectable”.

Question: And the “number of CD34+ CFUs” value (after 10 weeks)?
Answer: The value was 3.2×10^7 cells/ml.
